# Measured values taken from US12115161B2, “Prophylactic and/or therapeutic agent for inflammatory diseases which contains pyrrolopyrimidine compound as active ingredient” (KEIO UNIVERSITY, priority 2018, dated 2024).
# Key:
# [1] = tested on: human monocytic cell line THP-1; assay: IL-6 production inhibitory effect of BAFF in IFNγ-precultured THP-1 cells (Example 2); type: cell-based
# Procedure: In 24-well plates (manufactured by Corning Inc.) in a RPMI-1640 culture medium (produced by ATCC) containing 10% fetal bovine serum (produced by JRH Biosciences), 5×10^5 cells of human monocytic leukemia cell line THP-1 (obtained from a bioresource bank, Japanese Collection of Research Bioresource) were seeded per well. IFNγ (interferon γ, produced by BD Pharmingen) was added to a final concentration of 200 ng/mL and cultured in a 5% CO2 environment at 37° C. After four days of culture, the culture broth in each well was removed and the cells were washed twice with the culture medium, followed by addition of the culture medium containing a final concentration of 2 μg/mL of recombinant human soluble BAFF (produced by Chemicon), and respective test compounds were added to a final concentration of 20 μM or 2 μM to continue the culture in the same conditions. After three days of culture, the culture supernatant was collected to determine the IL-6 content in the supernatant by ELISA. For ELISA, mouse anti-human IL-6 antibody (produced by BD Pharmingen), biotin-labeled anti-human IL-6 antibody (produced by BD Pharmingen), and HRP-labeled streptavidin (produced by BD Pharmingen) were used. The test compound groups were used by purchasing from Asinex. In the test system, Compound 27 (BIK-13) in PTL 1 was used as a positive control (compound with inhibitory action on IL-6 production by monocytic cells). BIK-13 was the same as the compound of ADM 12880656 by Asinex Japan Inc.
# In the presence of 200 ng/mL recombinant human IFNγ (same as Example 1) (entire culture scale of 24-well culture plates at 2 mL/well), 5×10^5 cells of human monocytic cell line THP-1 (same as Example 1) were cultured using a 10% FBS/RPMI 1640 culture medium in a 5% CO2 environment at 37° C. for four days (96 hours). Four days later, an operation of removing the supernatant, adding a new medium, leaving it still in an incubator, and removing the supernatant was repeated twice. After removing the supernatant, recombinant human BAFF (2 μg/mL) was dissolved together with Compound A (ADM 12880492, Asinex Japan Inc.) or Compound B (ADM 12880696, Asinex Japan Inc.) in a medium and added to the culture wells to be cultured for three days. Three days later, the culture supernatant was collected to determine the IL-6 content in the culture supernatant by IL-6 specific ELISA. As a control, instead of Compound A or Compound B, BIK-13 was used.
# [2] = tested on: peripheral blood monocytes and B cells from Sjögren syndrome patients; assay: IgG production in coculture of BAFF-stimulated peripheral blood monocytes and B cells (Example 4); type: cell-based, human
# Procedure: Monocytes were isolated from Sjögren syndrome patient peripheral blood using CD14 microbeads, and B cells were isolated from the peripheral blood using CD19 microbeads. Using Transwell® culture plates, 2×10^5 monocytes per well were seeded in the upper plate and 1×10^5 B cells in the lower plate to be cultured in the presence of 2 μg/mL recombinant human BAFF (same as Example 2) and Compound A (1 μM and 10 μM) using a 10% FBS/RPMI 1640 culture medium in a 5% CO2 environment at 37° C. for four days (coculture of the peripheral blood monocytes and the B cells via a membrane). Four days later, the supernatant was removed and the culture supernatant was collected to determine the IgG content in the culture supernatant by ELISA. As controls, experiments in the case of not adding Compound A and the case of adding neither Compound A nor BAFF were also performed. Moreover, for comparison with the effects of Compound A, experiments using BIK-13 instead of Compound A were also performed.
# [3] = tested on: NZB/WF1 mice; assay: Anti-dsDNA antibody titer in blood of NZB/WF1 mice (Example 7); type: in vivo
# Procedure: NZB/WF1 mice (purchased from Japan SLC, Inc.) were used as disease model (may also be referred to as systemic lupus erythematosus (SLE) model) mice producing anti-dsDNA antibodies with age and spontaneously developing glomerulonephritis. Except for the following exceptions, present Example was performed by the same materials and method as Example 6 above.
# Experiments were performed as follows: • Group 1: administered a physiological saline solution only (saline); • Group 2: administered 0.2 mg/kg of Compound A; • Group 3: administered 1 mg/kg of Compound A.
# NZB/WF1 mice (female) of 20 weeks old were classified into the above three groups (five individuals per group) and predetermined administration was initiated (0 w) on the individuals in each group.
# The administration was performed five times a week for 20 weeks by intravenous injection.
structure (smiles),measurement,setting,value
"Cc1c(C)n(Cc2ccccc2)c2ncnc(OC3CCN(CC(=O)NCC4CC4)CC3)c12 [Compound A, 2-[4-{(7-benzyl-5,6-dimethyl-7H-pyrrolo[2,3-d]pyrimidin-4-yl)oxy}piperidin-1-yl]-N(cyclopropylmethyl)acetamide]",IL-6 production inhibitory effect compared with the control,"[1]; 0.04 μM, 0.2 μM and 1 μM together with 2 μg/mL human BAFF, 3 days, ELISA",significant (p<0.001) IL-6 production inhibitory effects
same,relative amount of IL-6 production,"[1]; 0.04 μM, control (BAFF only) = 100%",25±1.42%
same,"IL-6 production inhibitory effect, times stronger than BIK-13",[1]; THP-1 system of Example 2,at least 750 times
same,IgG antibody production inhibitory effect compared with the control (B+mono+BAFF),"[2]; 1 μM and 10 μM with 2 μg/mL human BAFF, 4 days",significant (p<0.01 or p<0.001) IgG antibody production inhibitory effects
same,cancellation of the IgG antibody production enhancement by BAFF,"[2]; 10 μM, compared with adding neither compound nor BAFF",completely cancelled and further the IgG antibody production was inhibited below the basal level
same,"inhibitory effect on IgG antibody production, times stronger than BIK-13",[2]; coculture system of Example 4,approximately 10 times
same,anti-dsDNA antibody titer inhibitory effect compared with saline,"[3]; 1 mg/kg, 12th and 16th weeks","significant (respectively, p<0.05) anti-dsDNA antibody titer inhibitory effects"
same,anti-dsDNA antibody titers in the blood compared with saline,"[3]; 0.2 and 1 mg/kg, intravenous injection five times a week, 12 w or later",tendency of decrease
